The target of one test is T1, Caspase-3 (Homo sapiens, UniProt P42574).
T1 sequence (P42574 whole entry): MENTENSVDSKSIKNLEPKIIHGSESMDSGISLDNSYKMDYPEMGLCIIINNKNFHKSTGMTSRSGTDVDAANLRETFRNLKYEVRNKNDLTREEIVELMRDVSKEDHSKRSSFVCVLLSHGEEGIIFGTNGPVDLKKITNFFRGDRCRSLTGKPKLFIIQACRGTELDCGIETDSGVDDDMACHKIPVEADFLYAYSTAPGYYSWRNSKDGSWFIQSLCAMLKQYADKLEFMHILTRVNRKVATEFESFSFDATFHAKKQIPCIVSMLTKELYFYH
Kind of test: Inhibition of caspase3.

The target of test [1] is T2, Protein-glutamine gamma-glutamyltransferase (Homo sapiens, UniProt P21980).
T2 sequence (P21980 whole entry): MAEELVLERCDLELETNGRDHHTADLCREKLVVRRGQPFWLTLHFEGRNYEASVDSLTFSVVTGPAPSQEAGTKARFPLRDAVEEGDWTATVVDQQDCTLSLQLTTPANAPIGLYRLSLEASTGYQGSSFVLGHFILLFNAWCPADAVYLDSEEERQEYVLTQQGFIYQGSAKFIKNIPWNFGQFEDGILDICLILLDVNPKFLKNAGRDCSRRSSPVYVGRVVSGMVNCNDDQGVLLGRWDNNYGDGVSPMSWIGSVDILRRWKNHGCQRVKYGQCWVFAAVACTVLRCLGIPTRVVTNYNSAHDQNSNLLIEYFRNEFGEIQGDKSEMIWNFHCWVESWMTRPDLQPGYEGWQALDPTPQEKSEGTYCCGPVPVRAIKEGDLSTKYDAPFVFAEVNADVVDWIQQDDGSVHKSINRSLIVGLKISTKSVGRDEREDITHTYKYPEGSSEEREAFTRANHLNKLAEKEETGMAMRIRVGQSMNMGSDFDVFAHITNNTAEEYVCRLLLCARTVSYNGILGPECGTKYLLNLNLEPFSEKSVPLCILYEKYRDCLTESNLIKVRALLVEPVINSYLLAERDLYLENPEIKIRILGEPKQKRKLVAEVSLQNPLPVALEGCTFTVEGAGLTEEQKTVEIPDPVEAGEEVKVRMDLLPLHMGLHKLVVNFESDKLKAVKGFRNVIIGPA
Kind of test: Inhibition of tissue transglutaminase.

Test [2] addresses T3, Ubiquitin carboxyl-terminal hydrolase isozyme L3 (Homo sapiens, UniProt P15374).
T3 sequence (P15374 whole entry): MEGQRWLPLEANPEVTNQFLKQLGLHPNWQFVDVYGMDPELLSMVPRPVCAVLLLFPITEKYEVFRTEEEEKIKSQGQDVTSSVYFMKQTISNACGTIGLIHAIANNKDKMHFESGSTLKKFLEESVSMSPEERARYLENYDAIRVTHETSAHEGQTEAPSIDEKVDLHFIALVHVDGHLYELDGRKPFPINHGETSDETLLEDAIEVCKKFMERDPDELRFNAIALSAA
Kind of test: Inhibition of UCHL3.

The target of test [3] is T4, Ubiquitin carboxyl-terminal hydrolase 5 (Homo sapiens, UniProt P45974).
T4 sequence (P45974 whole entry): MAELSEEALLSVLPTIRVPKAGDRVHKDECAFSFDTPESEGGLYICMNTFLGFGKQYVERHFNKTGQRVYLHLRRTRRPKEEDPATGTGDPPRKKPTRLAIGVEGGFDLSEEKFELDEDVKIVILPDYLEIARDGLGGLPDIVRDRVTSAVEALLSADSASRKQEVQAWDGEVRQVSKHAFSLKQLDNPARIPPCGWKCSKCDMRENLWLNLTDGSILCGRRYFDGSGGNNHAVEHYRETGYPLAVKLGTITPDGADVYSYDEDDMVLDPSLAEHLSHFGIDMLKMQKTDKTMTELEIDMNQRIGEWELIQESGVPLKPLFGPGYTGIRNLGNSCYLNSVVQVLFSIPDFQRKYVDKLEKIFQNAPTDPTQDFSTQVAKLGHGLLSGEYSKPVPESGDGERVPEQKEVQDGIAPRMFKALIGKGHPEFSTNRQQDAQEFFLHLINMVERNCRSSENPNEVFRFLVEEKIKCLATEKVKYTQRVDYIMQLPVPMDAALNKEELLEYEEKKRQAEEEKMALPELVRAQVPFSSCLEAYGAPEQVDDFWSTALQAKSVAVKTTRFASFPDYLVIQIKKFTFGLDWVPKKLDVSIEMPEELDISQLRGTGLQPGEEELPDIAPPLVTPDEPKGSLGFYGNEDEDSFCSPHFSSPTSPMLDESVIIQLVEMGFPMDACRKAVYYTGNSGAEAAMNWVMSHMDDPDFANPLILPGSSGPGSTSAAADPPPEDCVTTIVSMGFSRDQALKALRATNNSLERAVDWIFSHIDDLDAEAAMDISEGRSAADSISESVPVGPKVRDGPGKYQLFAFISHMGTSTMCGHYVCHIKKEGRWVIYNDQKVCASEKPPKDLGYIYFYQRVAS
Kind of test: Inhibition of isopeptidase T.

Test [4] has as its target T5, Ubiquitin carboxyl-terminal hydrolase isozyme L1 (Homo sapiens, UniProt P09936).
T5 sequence (P09936 whole entry): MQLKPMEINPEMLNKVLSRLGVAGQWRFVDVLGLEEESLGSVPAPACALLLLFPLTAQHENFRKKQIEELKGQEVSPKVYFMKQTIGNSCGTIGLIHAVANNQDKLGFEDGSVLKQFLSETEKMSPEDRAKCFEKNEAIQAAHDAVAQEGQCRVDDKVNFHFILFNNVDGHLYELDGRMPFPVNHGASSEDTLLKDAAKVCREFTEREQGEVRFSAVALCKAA
Kind of test: Inhibition of UCHL1 in human H1299 cells. Type of test: cell-based.

Test [5] addresses T3, Ubiquitin carboxyl-terminal hydrolase isozyme L3. The test is described as follows: Inhibition of UCHL3 in human H1299 cells. Type of test: cell-based.

Bounds are passed on as bounds.

One may read the Ki as the equilibrium dissociation constant of an inhibitor or competing ligand from its target. Read a high Ki as weaker binding. As for `Nc1c(C(=O)c2ccccc2)sc2[nH]c(=O)c(C(=O)O)cc12`, the Ki (at Caspase-3; in test [1]; in test [2]; in test [3]) was over 100 µM in each case.

Usually IC50 stands for the midpoint of a concentration-inhibition curve. Take `O=C1CC(=O)c2c(Cl)c(Cl)c(Cl)c(Cl)c21`: the IC50 in test [4] is 75 µM; in test [5] it was 0.6 µM.

Regarding `CC(=O)O/N=C1/C(=O)N(Cc2ccc(Cl)c(Cl)c2)c2ccc(Br)cc21`, the values for the IC50 in test [4] and in test [5] were 0.81 µM and 17 µM, respectively.

Regarding `CC(=O)O/N=C1/C(=O)N(Cc2cc(Cl)ccc2Cl)c2ccc(Br)cc21`, the IC50 was found to be 0.88 µM in test [4] and 25 µM in test [5].

As to `CC(=O)O/N=C1/C(=O)N(Cc2ccc(Cl)c(Cl)c2)c2ccc(I)cc21`, the IC50 in test [4] turned out to be 0.94 µM; in test [5] it was 23 µM.

Regarding `CCCCc1ccc(-c2n[nH]c(=S)n2-c2ccc(C(C)C)cc2)cc1`, the IC50 came to 126 µM in test [4] and 47 µM in test [5].

In the case of `CC1=CC(=O)c2ccccc2C1=O` [MENADIONE], the half-inhibitory concentration (IC50) in test [4] came out at 290 µM; in test [5], 71 µM.

These data come from ChEMBL document CHEMBL1240332, “Mechanisms, biology and inhibitors of deubiquitinating enzymes” (Nat Chem Biol, 2007).
